Measurements as given in US20210113501A1, “METHOD OF ADMINISTERING BETA-HYDROXY-BETA-METHYLBUTYRATE (HMB)” (Metabolic Technologies, Inc., priority 2009, published 2021).
Read-outs that look alike come from different tables or passages of the source.

Assays:
[1] = Study 2: plasma HMB and urinary HMB excretion over 24 h; format: in vivo, human; conditions: Study 2; for AUC plasma HMB: 24 h; for Clearance: Vd assumed 20% of body weight; for tpeak: unit as in Table 5; for AUC greater than for CaHMB capsules: over 24 hours
Excerpt: Human subjects. In study 1, four male and four female college-aged subjects were studied. In study 2, an additional four male and four female college-aged subjects were studied. The protocols for both studies were approved by the Iowa State University IRB and each subject gave informed consent to participate in the study. Due to the nature of the treatments, neither the subjects nor the researchers could be blinded.
Treatments. The same treatments were given to the subjects in both study groups. The three treatments were given in random order to each subject with at least a one week washout period between treatments. The treatments were supplied by Metabolic Technologies, Inc. (MTI, Ames, Iowa) and were prepared with food grade ingredients. One gram of CaHMB or the equivalent HMB in free acid in a gel form was administered to the subjects. The CaHMB capsules were obtained from a commercial supplement manufacturer (Optimum Nutrition, Aurora, Ill.) while the HMB-acid gel was prepared at MTI laboratories. Briefly, the HMB-acid was adjusted to a pH 4.5 with potassium carbonate (K2CO3) and flavors and sweeteners were then added. The 1.0 g CaHMB capsule was taken with 355 mL of water (approx. 12 oz.). The free acid gel dosage was 0.80 g and was equivalent to the free acid contained in the CaHMB in the capsule. The free acid gel treatments were either swallowed (FASW) or held sublingual for 15 seconds and then swallowed (FASL). FASW consisted of expelling the entire dose into the mouth in a 3 ml syringe, swallowing, and then following this with 355 mL of water. FASL subjects were instructed to place the entire dosage under the tongue and hold the dosage for 15 sec before swallowing. They then rinsed and followed the dose with 355 mL of water.
Study 2 design. Study 2 was conducted similar to study 1 with the following modifications. In study 2, plasma levels of HMB were measured for 1440 min (24 h) and total urine collection was also performed for measurement of urinary HMB excretion during this period. After the 180 min blood sample, the subjects were allowed to leave the laboratory and were instructed to return to the laboratory for additional blood samples at 360, 720, and 1440 min after the ingestion of the supplement. As in study 1, each subject took each of the treatments with at least a one week washout period between treatments. Samples were again stored frozen at −70° C. for analysis of plasma and urinary HMB concentrations. Pre-ingestion, 180 min and 1440 min blood samples were again assayed for the same measurements already for study 1. Subjects were provided with a standardized lunch after the 180 min blood sampling and instructed to eat this at approximately 240 min post ingestion. Following the 720 min blood sample, subjects were instructed to eat a normal evening meal before 10 pm. Subjects reported back to the laboratory the following morning for the fasted 1440 min blood sample. A urine collection container was provided and subjects collected all urine produced during the experimental 24 h experimental period. The urine was stored refrigerated when not being collected. Urine volumes were measured and samples of the total urine collection were taken and stored frozen at −70° C. until analyzed for HMB.
HMB analysis. Plasma and urine HMB were analyzed by gas chromatography/mass spectrometry (GC/MS) as previously described.(27)
Calculations and statistics. Areas under the curves were calculated for each subject using the trapezoidal method that sums the area above baseline.(51) Half-life of plasma HMB was calculated for study 2. The following equations were used:
k=(ln(Cpeak)−ln(Ctrough))/Tinterval
Peak plasma concentrations for each subject were used for Cpeak. […] Tpeak was the time at which Cpeak was measured and Tinterval is the time from Tpeak until the time at Ctrough (720 min). The extracellular fluid compartment was assumed to be 20% of body weight and calculated using equation 3 below(1). […]

[2] = cited from earlier work

| Compound | 24 h Urine HMB [1] [mmol] | 24 h Urine HMB, % initial dose [1] [% initial dose] | Cpeak (peak plasma HMB concentration) [1] [nmol/mL] | AUC plasma HMB [1] | Clearance [1] [mL/min] | tpeak [1] [min] | also measured |
| --- | --- | --- | --- | --- | --- | --- | --- |
| CC(C)(O)CC(=O)[O-].CC(C)(O)CC(=O)[O-].[Ca+2] [CaHMB, calcium β-hydroxy-β-methylbutryate, reference compound] | 1.00 ± 0.13 | 14.7±2.0 | 131.2 ± 6.0 | 46,281 ± 2,717 nmol/1440 min | 53.9 ± 4.2 | 135 ± 17 | Half-life of plasma HMB [1]: 3.17 ± 0.22 h; time to peak plasma HMB concentration [1]: 135.0 ± 17.0 min; plasma HMB level at 360 and 720 min versus free acid gel ([1]; p<0.05): slightly higher; time of peak plasma HMB levels after ingestion ([2]; depending upon the dosage): 60 to 120 min; plasma peak levels, 3 grams versus 1 gram dose ([2]; oral, Vukovich et al): 3 times; time to peak plasma levels ([2]; typical 1 gram dosage): 2 h |
| CC(C)(O)CC(=O)O [HMB-Acid Gel Swallow, 3-hydroxy-3-methylbutyric acid] | 1.21 ± 0.19 | 17.8 ± 2.9 | 238.6 ± 16.0 | 53,395 ± 2,862 nmol/1440 min | – | 41.9 ± 5.8 | 24 h Urine HMB, % initial dose ([1]; listed as FASW): 17.8±2.9 % initial dose; Cpeak (peak plasma HMB concentration) ([1]; listed as FASW): 238.6 ± 16.0 nmol/mL; time to peak plasma HMB concentration ([1]; listed as FASW): 41.9 ± 5.8 min; AUC greater than for CaHMB capsules ([1]; listed as FASW): 15.4%; half-life ([1]; both sexes, human, plasma, oral, 0.8 g): 2.5 ± 0.13 h; Clearance ([1]; both sexes, human, plasma, oral, 0.8 g, read-out: Clearance): 67.3 ± 3.2 mL/min |
| CC(C)(O)CC(=O)O [HMB-Acid Gel Sublingual, 3-hydroxy-3-methylbutyric acid] | 1.16 ± 0.17 | 17.2 ± 2.5 | 247.6 ± 19.8 | 52,886 ± 2,729 nmol/1440 min | 66.9 ± 1.6 | 38.8 ± 2.6 | 24 h Urine HMB, % initial dose ([1]; listed as FASL): 17.2±2.5 % initial dose; Cpeak (peak plasma HMB concentration) ([1]; listed as FASL): 247.6 ± 19.8 nmol/mL; Half-life of plasma HMB ([1]; listed as FASL): 2.51 ± 0.14 h; time to peak plasma HMB concentration ([1]; listed as FASL): 38.8 ± 2.6 min; AUC greater than for CaHMB capsules ([1]; listed as FASL): 14.3% |
